Measurements published in PMC12028738 (Marine Drugs, 2025).
Where no end group is shown, it is not given here.

Key:
PD-1/PD-L1 binding = conditions: read-out: PD-1/PD-L1 inhibitory IC50; cited from earlier work
Text: (§1) With continuous progress of modern separation and analysis techniques, high-throughput screening methods for enzyme inhibitory peptides have emerged as powerful tools in the discovery of bioactive peptides. Recently, the methodologies based on the phage display library, bacteria display library, and peptide fragment of proteins have been applied in screening for PD-L1 inhibitors.

CT26 tumor = conditions: 2 mg/kg, CT26 tumor-bearing mice; cited from earlier work
Text: as §1

Water-solubility = assay type: physicochemical; conditions: qualitative statement
Tag1-PD-L1 protein = Tag1-PD-L1 protein (UniProt Q9NZQ7 19-238); assay: AlphaScreen or HTRF; Cisbio PD-1/PD-L1 HTRF binding assay kit; competition: analyte with Tag1-PD-L1 and Tag2-PD-1 for 15 min at room temperature, then anti-Tag1-Eu3+ and anti-Tag2-XL665 for 2 h at room temperature; conditions: both partners purified
[1] = target: T1, recombinant human PD-L1 (residue 18–239, extracellular domain) (human, UniProt Q9NZQ7 18-239); assay: SPR; Biacore T200, 25 °C; PD-L1 amine-coupled on a CM5 chip to about 5600 RU; peptides injected in PBS-P (1% DMSO) at 30 µL/min, 60 s contact, 60 s dissociation; conditions: both partners purified
T1 construct: Programmed death ligand 1 (PD-L1, B7-H1, CD274), human, residues 18-239, extracellular domain; The limits 18-239 are told for the SPR experiment; No tag is stated; also called programmed death ligand 1; source: bought: Abcam (recombinant, 25 kDa)

IC50 (Tag1-PD-L1 protein) [µM] | Kd [1] [µM] | Molecule | also measured
– | – | CKWYRPSEC [cyclic peptide C8, not the ascidian peptide C8] | IC50 (PD-1/PD-L1 binding): < 10 µM
– | – | NYSKPTDRQYHF [^DPPA-1] | prolongation of survival time (CT26 tumor): ~50%; tumor growth (CT26 tumor): inhibited the tumor growth
– | – | LDVVIHTVTYGDR [C5] | water-solubility (Water-solubility): poor
33.9 | 22.9 | LDVVIHTVTYGDR (from the Ciona intestinalis trypsin hydrolysate; written as one molecule; The parent protein is not known; also called peptide C5; source: trypsin hydrolysate of Ciona intestinalis (AUF); synthetic peptide, GuoPing Pharmaceutical (HTRF, SPR)) [C5] | –
113 | 29.1 | VLRDNIQGITKPAIR (from the Styela clava trypsin hydrolysate; candidate protein: Histone H4 (Transparent ascidian); the text says that it exactly matches Histone H4 of Ciona savignyi; written as one molecule; also called peptide S2; source: trypsin hydrolysate of Styela clava (AUF); synthetic peptide, GuoPing Pharmaceutical (HTRF, SPR)) [S2] | –
